How the values were obtained:
Assay type in all cases: cell-based
[1] = target: T1, Voltage-dependent T-type calcium channel subunit alpha-1G (Homo sapiens, UniProt O43497); assay: Inhibition of T-type [Ca2+] channel (alpha1G) expressed in HEK293 cells
[2] = target: Voltage-dependent N-type calcium channel subunit alpha-1B (Homo sapiens) (UniProt Q00975); assay: Percent inhibition of N-type [Ca2+] channel (Alpha-1B) expressed in HEK293 cells at 10 uM
[3] = target: T1, Voltage-dependent T-type calcium channel subunit alpha-1G; assay: Percent inhibition of T-type [Ca2+] channel (alpha1G) expressed in HEK293 cells at 10 uM
HEK293 = assay: Selectivity for T-type and N-type [Ca2+] channels expressed in HEK293 cells at 10 uM; settings: Homo sapiens
[4] = target: Voltage-dependent T-type calcium channel subunit alpha-1H (Homo sapiens) (UniProt O95180); assay: Percent inhibition of T-type [Ca2+] channel (alpha1H) stably expressed in Xenopus oocytes at 100 uM; settings: Oocyte
[5] = target: Voltage-dependent N-type calcium channel subunit alpha-1B (Homo sapiens) (UniProt Q00975); assay: Percent inhibition of N-type [Ca2+] channel (Alpha-1B) expressed in HEK293 cells at 10 uM; No blocking

Chain of Voltage-dependent N-type calcium channel subunit alpha-1B (Homo sapiens) (Q00975 whole entry, looked up): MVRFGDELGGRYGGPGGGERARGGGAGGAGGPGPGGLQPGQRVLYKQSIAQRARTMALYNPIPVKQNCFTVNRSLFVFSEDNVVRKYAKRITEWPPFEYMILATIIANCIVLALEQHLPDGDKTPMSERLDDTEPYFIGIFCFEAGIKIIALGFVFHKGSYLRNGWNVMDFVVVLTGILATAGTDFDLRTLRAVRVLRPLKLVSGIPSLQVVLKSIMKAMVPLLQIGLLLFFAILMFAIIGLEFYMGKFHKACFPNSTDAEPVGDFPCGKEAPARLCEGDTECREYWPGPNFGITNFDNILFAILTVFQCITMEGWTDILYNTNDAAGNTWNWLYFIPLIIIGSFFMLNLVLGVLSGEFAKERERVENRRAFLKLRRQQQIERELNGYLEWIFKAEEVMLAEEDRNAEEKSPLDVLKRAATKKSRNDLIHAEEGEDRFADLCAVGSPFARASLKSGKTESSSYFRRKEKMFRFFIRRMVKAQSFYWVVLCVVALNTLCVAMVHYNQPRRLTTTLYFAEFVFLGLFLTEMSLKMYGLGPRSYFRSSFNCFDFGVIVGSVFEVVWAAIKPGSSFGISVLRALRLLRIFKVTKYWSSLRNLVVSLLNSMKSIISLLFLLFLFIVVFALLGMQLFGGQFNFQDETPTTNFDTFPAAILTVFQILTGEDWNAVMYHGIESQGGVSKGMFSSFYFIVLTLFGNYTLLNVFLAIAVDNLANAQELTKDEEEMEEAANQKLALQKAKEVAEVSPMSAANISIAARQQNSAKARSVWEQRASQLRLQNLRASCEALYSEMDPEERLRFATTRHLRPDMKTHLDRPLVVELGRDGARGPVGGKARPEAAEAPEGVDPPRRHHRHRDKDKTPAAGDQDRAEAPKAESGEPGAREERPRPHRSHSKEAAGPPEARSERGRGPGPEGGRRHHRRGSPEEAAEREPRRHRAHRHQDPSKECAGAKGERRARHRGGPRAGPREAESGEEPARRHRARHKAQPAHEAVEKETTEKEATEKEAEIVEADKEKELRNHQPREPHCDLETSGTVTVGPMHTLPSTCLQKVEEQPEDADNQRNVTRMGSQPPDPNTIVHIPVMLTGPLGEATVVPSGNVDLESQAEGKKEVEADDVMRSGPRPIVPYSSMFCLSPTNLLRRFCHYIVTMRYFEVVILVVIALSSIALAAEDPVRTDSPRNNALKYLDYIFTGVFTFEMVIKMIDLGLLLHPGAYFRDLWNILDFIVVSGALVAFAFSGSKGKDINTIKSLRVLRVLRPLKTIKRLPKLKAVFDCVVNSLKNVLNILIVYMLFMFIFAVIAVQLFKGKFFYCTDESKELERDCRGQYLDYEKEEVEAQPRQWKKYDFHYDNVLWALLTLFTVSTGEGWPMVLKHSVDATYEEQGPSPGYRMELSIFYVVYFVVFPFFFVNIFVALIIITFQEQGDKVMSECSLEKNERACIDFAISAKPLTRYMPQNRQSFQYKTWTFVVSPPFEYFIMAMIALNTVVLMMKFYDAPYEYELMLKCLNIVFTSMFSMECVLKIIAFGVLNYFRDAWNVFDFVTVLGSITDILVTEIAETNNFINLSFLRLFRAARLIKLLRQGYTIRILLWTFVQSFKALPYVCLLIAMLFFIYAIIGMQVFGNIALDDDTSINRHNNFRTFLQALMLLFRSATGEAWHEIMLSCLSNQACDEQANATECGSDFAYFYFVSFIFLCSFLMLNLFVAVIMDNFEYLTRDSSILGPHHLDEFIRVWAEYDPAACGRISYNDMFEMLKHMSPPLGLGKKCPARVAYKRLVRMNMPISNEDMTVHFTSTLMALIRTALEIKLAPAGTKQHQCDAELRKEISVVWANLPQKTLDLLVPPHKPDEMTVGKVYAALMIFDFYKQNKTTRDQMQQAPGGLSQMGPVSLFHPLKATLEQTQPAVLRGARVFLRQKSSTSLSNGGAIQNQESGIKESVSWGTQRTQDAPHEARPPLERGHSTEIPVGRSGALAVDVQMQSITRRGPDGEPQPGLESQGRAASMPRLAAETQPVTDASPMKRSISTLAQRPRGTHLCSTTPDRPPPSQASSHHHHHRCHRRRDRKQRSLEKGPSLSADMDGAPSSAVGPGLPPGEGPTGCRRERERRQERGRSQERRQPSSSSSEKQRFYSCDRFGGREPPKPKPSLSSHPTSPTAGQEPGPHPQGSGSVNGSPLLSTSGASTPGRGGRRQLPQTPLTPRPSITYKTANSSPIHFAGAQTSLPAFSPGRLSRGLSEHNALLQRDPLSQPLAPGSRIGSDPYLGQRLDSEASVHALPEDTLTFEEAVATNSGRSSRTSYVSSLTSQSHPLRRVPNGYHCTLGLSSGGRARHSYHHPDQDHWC
T1 sequence (O43497 whole entry): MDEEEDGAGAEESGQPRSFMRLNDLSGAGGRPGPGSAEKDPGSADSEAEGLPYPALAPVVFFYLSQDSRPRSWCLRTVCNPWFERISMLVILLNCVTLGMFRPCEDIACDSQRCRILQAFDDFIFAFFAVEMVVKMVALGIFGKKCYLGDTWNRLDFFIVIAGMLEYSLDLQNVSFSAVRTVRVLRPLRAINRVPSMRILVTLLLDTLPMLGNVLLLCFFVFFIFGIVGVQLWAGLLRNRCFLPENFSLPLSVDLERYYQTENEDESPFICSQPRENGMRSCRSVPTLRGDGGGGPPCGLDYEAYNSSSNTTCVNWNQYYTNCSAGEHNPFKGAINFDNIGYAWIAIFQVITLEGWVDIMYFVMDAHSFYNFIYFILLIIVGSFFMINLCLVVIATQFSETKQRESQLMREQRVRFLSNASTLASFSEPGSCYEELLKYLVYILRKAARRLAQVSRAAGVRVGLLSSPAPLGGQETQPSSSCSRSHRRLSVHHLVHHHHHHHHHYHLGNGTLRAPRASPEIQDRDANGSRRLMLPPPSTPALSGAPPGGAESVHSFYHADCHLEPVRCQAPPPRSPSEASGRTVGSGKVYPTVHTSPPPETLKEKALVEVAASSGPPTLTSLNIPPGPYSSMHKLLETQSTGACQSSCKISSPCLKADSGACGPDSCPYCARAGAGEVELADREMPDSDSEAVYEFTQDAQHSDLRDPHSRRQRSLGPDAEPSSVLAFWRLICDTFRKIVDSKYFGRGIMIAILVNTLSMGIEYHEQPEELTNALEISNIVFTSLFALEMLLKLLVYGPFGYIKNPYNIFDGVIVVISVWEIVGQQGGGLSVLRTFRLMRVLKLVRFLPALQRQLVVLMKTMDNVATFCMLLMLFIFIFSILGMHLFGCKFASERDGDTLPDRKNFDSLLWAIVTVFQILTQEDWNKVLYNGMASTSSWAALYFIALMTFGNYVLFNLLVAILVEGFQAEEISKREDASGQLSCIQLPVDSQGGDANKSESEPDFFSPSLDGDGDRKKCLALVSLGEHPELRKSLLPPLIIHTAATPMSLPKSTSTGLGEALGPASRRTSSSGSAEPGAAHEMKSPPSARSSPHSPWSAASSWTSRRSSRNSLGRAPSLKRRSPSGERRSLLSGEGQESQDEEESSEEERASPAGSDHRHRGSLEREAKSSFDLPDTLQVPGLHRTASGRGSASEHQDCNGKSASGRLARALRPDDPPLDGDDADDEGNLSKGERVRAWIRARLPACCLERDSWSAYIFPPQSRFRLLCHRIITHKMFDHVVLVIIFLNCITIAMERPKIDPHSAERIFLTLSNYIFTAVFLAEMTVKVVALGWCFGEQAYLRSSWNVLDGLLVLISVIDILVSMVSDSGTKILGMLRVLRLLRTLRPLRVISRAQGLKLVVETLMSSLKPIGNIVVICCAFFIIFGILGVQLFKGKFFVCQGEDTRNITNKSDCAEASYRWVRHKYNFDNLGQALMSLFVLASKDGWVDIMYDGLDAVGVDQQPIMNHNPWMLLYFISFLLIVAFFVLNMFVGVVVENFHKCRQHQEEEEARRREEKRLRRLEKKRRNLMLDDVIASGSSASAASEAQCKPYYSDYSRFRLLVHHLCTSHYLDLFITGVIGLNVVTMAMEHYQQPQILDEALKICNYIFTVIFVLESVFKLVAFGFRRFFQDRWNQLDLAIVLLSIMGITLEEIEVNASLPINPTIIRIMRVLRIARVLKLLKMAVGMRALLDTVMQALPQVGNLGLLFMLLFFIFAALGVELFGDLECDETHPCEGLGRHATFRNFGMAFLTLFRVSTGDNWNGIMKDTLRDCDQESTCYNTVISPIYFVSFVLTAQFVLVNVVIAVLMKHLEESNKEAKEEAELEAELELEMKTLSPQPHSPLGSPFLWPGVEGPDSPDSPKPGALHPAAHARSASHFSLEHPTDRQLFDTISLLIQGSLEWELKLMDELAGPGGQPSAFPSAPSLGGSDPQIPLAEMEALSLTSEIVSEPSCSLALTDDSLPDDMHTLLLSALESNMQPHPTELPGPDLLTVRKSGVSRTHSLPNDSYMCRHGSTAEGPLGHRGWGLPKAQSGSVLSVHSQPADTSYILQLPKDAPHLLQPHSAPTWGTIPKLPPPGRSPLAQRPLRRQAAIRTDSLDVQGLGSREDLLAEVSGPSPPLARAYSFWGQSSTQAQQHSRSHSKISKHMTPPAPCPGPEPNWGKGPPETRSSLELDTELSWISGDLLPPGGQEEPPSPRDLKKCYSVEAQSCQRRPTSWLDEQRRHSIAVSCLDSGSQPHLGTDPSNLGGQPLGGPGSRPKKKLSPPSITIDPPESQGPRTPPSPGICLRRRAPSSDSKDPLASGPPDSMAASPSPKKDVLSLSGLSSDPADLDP

Structure (SMILES) | IC50 [1] [nM] | inhibition [2] [%] | inhibition [3] [%] | Selectivity (HEK293) | inhibition [4] [%] | inhibition [5] [%]
O=C(CC1c2ccccc2N=C(N2CCCCC2)N1c1ccccc1)NCc1ccc(NS(=O)(=O)c2ccc(F)cc2)cc1 (configuration not stated) | 110 |  |  |  |  | 
Cc1ccc(S(=O)(=O)Nc2ccc(CNC(=O)CC3c4ccccc4N=C(N4CCCCC4)N3c3ccccc3)cc2)cc1 (configuration not stated) | 170 |  |  |  |  | 
COC(=O)CC1c2ccccc2N=C(Nc2ccc(-c3ccccc3)cc2)N1CCCCCN (configuration not stated) | 300 | 7.5 | 84.1 | 11.2 | 94.6 | 
COC(=O)CC1c2ccccc2N=C(Nc2ccc(-c3ccccc3)cc2)N1CCCCCNC(=O)OC(C)(C)C (configuration not stated) | 370 | 94.9 | 88.5 | 0.9 | 96.5 | 
O=C(CC1c2ccccc2N=C(N2CCCCC2)N1c1ccccc1)NCc1ccccc1 (configuration not stated) | 1160 |  |  |  |  | 
COC(=O)CC1c2ccccc2N=C(NCCCCCN)N1c1ccc(-c2ccccc2)cc1 (configuration not stated) |  |  | 82.5 |  | 97 | < 1
CC(C)(C)OC(=O)NCCCCCN1C(Nc2ccc(-c3ccccc3)cc2)=Nc2ccccc2C1CC(=O)NCc1ccccc1 (configuration not stated) | 170 | 30.1 | 88.5 | 2.9 | 91.2 | 
CC(C)(C)OC(=O)NCCCCCNC1=Nc2ccccc2C(CC(=O)NCc2ccccc2)N1c1ccc(-c2ccccc2)cc1 (configuration not stated) | 160 | 16.6 | 88.3 | 5.3 | 84.2 | 
NCCCCCN1C(Nc2ccc(-c3ccccc3)cc2)=Nc2ccccc2C1CC(=O)NCc1ccccc1 (configuration not stated) | 140 | 15.2 | 91.8 | 6 | 97 | 
COCC(=O)O[C@]1(CCN(C)CCCc2nc3ccccc3[nH]2)CCc2cc(F)ccc2[C@@H]1C(C)C |  | 67.6 |  |  |  | 
COC(=O)CC1c2ccccc2N=C(NCCCCCNC(=O)OC(C)(C)C)N1c1ccc(-c2ccccc2)cc1 (configuration not stated) | 680 | 98.6 | 86.5 | 0.9 | 92.2 | 
NCCCCCNC1=Nc2ccccc2C(CC(=O)NCc2ccccc2)N1c1ccc(-c2ccccc2)cc1 (configuration not stated) | 130 | 8.3 | 83.8 | 10.1 | 80.1 | 
